Assay results from PMC10244669, “Virtual screening–based discovery of AI-2 quorum sensing inhibitors that interact with an allosteric hydrophobic site of LsrK and their functional evaluation” (Frontiers in Chemistry, 2023).
Entries after “also recorded” stand apart in the source; their conditions may differ. Read-outs that look alike come from different tables or passages of the source.

Key:
LsrK [1] = target: T1, LsrK (Salmonella typhimurium, UniProt Q8ZKQ6); experiment: LsrK inhibition assay (Kinase-Glo luminescence); type: biochemical; details: for IC50 / inhibition at 200 µM: mean ± SD, n = 3; for inhibition at 200 µM: Table 1, hits at 200 μM with 100 μM ATP; for type of LsrK inhibition: from IC50 values at 50, 100 and 150 μM ATP
T1 sequence (Q8ZKQ6 whole entry): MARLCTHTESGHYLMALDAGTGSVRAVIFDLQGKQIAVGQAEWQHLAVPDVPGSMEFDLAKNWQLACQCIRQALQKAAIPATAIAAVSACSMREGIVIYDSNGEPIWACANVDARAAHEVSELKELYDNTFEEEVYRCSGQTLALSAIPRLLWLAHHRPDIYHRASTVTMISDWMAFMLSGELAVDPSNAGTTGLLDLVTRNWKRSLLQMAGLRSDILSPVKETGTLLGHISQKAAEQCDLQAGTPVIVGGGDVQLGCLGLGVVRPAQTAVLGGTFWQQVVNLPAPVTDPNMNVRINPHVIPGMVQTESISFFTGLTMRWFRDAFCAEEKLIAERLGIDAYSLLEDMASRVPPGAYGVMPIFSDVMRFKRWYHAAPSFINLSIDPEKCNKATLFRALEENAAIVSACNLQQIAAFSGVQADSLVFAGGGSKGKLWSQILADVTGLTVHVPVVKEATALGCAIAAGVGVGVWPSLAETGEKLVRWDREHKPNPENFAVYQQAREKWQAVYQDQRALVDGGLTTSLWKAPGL
Experimental: (§1) To express LsrK with a 6 × His-tag at the C-terminus, the LsrK encoding gene of Salmonella typhimurium was amplified using primers carrying restriction endonuclease sites BamHI and XhoI. The amplified product was cloned into the expression vector pET-28a with a C-terminal 6 × His-tag and transfected into E. coli BL21 (DE3).
This assay was performed as previously described ([Gatta et al., 2019]), and the conditions were optimized. […] 74 purchased compounds were dissolved in dimethyl sulfoxide (20% v/v DMSO in reaction buffer) at a concentration of 2 mM. Briefly, 10 μL DPD, 10 μL LsrK, and 5 μL compound were added to a 96-well plate, and 25 μL ATP or 25 μL reaction buffer was added after 30 min incubation. The plate was incubated for 10 min at 37°C, then 50 μL of kit reagent was added, and the plate was incubated at 37°C for 15 min. The luminescence signal was measured using an Enspire 2300 microplate reader (PerkinElmer). Dose-response tests were carried out to verify the activity of hits chosen by primary screening. (200 μM–6.25 µM) ([Medarametla et al., 2018]). The inhibition percentage of each tested compound was determined as previously described and IC50 was calculated using four logistic parameters.

[2] = test system: AI-2-mediated QS (lsr promoter luminescence, reporter strain WHQ02); experiment: Cell-based AI-2-mediated QS interference assay; parameters: species or system E. coli; details: for AI-2 QS inhibitory activity (in words) / maximum AI-2 QS inhibition: 100 to 3.13 μM; for IC50: Escherichia coli, cell-based QS interference assay, WHQ02, mean ± SD, n = 3
Source text: All chemicals were purchased from Sigma-Aldrich (St. Louis, MO, United States) unless otherwise stated. DPD was purchased from the […] ZZBIO Co., LTD. (Shanghai, China). The Kinase-Glo Max Luminescent Kinase Assay Kit was purchased from Promega (Madison, WI, United States). NTA sensor chips were purchased from GE Healthcare (Chicago, IL, United States). All compounds used as potential inhibitors of LsrK were purchased from Topscience Biotechnology Co. Ltd. (Shanghai, China). The QS reporter strain WHQ02 (E. coli BL21 ΔTolC pWHQ01) was donated by Huiqi Wen (Institute of Microbiology and Epidemiology, Academy of Military Sciences, Beijing, China). The plasmid pWHQ01 was constructed by cloning the lsr promoter and the luxCDABE luminescent gene. BamHI and XhoI were purchased from New England Biolabs (Ipswich, MA, United States). pET-28a was purchased from Novagen (Madison, WI, United States). Escherichia coli BL21 (DE3) cells were purchased from TransGen Biotech Co., LTD. (Beijing, China). A Ni-NTA column was purchased from Sangon Biotech (Shanghai, China). Sodium dodecyl sulfate-polyacrylamide gel electrophoresis (SDS-PAGE) and the Bradford Protein Assay Kit were purchased from Thermo Fisher Scientific (Waltham, MA, United States).
(§2) WHQ02 cultured overnight were diluted 1:100 in fresh LB supplemented with 100 μg/mL ampicillin and grown at 30°C and until the logarithmic phase (OD600 = 0.4–0.6). The bacterial culture was centrifuged at 4,000 × g for 5 min, and the pellet was resuspended in fresh LB medium to prepare a suspension of 2 McFarland standard and added to the 96-well plate. In the experimental group, 74 compounds (final concentrations ranging from 100 to 3.125 μM) were added to reach a total volume of 100 µL. In addition, 100 µL LB medium with an equal volume of DMSO (negative control) or 100 µL LB supplemented with 2% glucose and the same volume of DMSO (positive control) were added. Bacteria was cultured at 37°C with shaking for 3 h. The […] of WHQ02 is directly regulated by the lsr promoter, reflecting the strength of QS. The luminescence and OD600 were measured using an Enspire 2300 microplate reader (Perkin Elmer). To further study the effect of compounds on bacterial growth, overnight cultured WHQ02 was diluted 1:1,000 with LB medium and added to 96 well plate. Then, the compounds were added to a 96-well plate (final concentration: 100 µM) and diluted in a gradient. The same volume of DMSO was added to the control group. The plates were incubated at 37°C for 18 h. OD600 values were recorded using an Enspire 2300 microplate reader. The experiment was performed in triplicate.

[3] = test system: WHQ02 (E. coli BL21 ΔTolC pWHQ01); experiment: Growth inhibition of the reporter strain (OD600); type: cell-based; details: 100 to 3.13 μM
Experimental: as §2
The 12 hits showing >60% LsrK inhibition were tested for QS inhibition using cell-based AI-2-mediated QS interference assay, as previously described [Baba et al., 2006]). To ensure that lower luminescence was the result of QS inhibition not the chemical toxicity or antibacterial activity, strain growth inhibition was assessed concurrently. […] Therefore, a parallel experiment to test the MIC of compounds at a low bacterial density was conducted, indirectly reflecting the potential growth inhibition to avoid false positives.

LsrK [4] = target: T1, LsrK; experiment: SPR assay; type: binding; details: for Kd: His-tagged LsrK on NTA chip, 50 to 1.56 µM, affinity binding model; for LsrK specific binding (in words): SPR
Source text: as §1
His-tagged LsrK was immobilized in the NTA sensor chip (GE Healthcare) in Biacore 8 K using a running buffer consisting of 1 × PBS-T and 5% v/v DMSO. Serially diluted small molecules (concentration range: 50 to 1.56 µM) were injected. Intermediate concentration (12.5 µM) was set as a repeat, and 1 × PBS-T with 5% v/v DMSO was set as the control. The association time was set to 120 s; the dissociation time was set to 130 s; and the flow rate was set to 30 μL/min. The resulting data were fitted to the affinity binding model using Biacore Evaluation Software (GE Healthcare).

Structure (SMILES) | IC50 (LsrK [1]; 100 μM ATP, read-out: IC50B) [µM] | inhibition at 200 µM (LsrK [1]) [%] | AI-2 QS inhibitory activity (in words) [2] | IC50 [2] [µM] | IC50 (LsrK [1]; 50 μM ATP, read-out: IC50A) [µM] | IC50 (LsrK [1]; 150 μM ATP, read-out: IC50C) [µM] | type of LsrK inhibition (LsrK [1]) | maximum growth inhibition [3] [%] | maximum AI-2 QS inhibition [2] [%] | Kd (LsrK [4]) [µM] | LsrK specific binding (in words) (LsrK [4])
COC(=O)CSC1=NC(=O)C[C@H](c2ccc(Cl)cc2)[C@H]1C#N [2188–1861] | 129 ± 6.85 | 92.1 ± 6.68 | significant QS inhibitory activities | 38.4 ± 3.35 |  |  |  |  |  |  | 
CCOc1ccc(/C=N\NC(=S)Nc2cccc(C(=O)O)c2)cc1O [3284–0335] | 84.9 ± 7.73 | 67.6 ± 4.88 |  | > 100 |  |  |  |  |  |  | 
C/C(=N/NC(=S)Nc1cccc(C(=O)O)c1)c1ccc(C)cc1 [3284–1358] | 41.8 ± 2.57 | 101 ± 3.82 | significant QS inhibitory activities | 37.8 ± 3.18 | 29.9 ± 1.95 | 88.1 ± 3.89 | ATP-competitive inhibitors | < 40 | > 80 |  | 
O=C1NC(=S)S/C1=C\c1c[nH]c2ccc(OCc3ccccc3)cc12 [3681–1274] | 133 ± 8.85 | 66.2 ± 3.54 | significant QS inhibitory activities | 42.2 ± 2.15 |  |  |  |  |  |  | 
O=C(O)C[C@H]1S/C(=N\N=C2\C(=O)Nc3ccccc32)N(c2ccc(O)cc2)C1=O [4515–0182] | 52.1 ± 2.68 | 83.7 ± 9.63 |  | > 100 |  |  |  |  |  |  | 
Cc1[nH]c(C(=O)N/N=C\c2ccc(O)c(O)c2)c(C)c1C(=O)N/N=C\c1ccc(O)c(O)c1 [5617–0915] | 79.4 ± 4.55 | 71.5 ± 4.33 |  | > 100 |  |  |  |  |  |  | 
O=C(O)CCc1ccc(-c2ccccc2)n1CC(=O)Nc1ccccc1C(F)(F)F [D135-0149] | 33.5 ± 2.52 | 83.9 ± 6.33 | significant QS inhibitory activities | 22.1 ± 1.66 | 21.8 ± 1.48 | 80.1 ± 4.83 | ATP-competitive inhibitors | < 40 | > 80 |  | 
Cc1c(O)cc(O)c2c(=O)c(O)c(-c3ccc(O)c(O)c3)oc12 [N025-0038] | 43.7 ± 4.31 | 80.5 ± 2.31 | significant QS inhibitory activities; also recorded: exhibited AI-2 QS inhibition at sub-minimum inhibitory concentrations; also recorded: exhibited QS inhibition at sub-MIC concentrations | 12.5 ± 0.99 | 26.6 ± 1.22 | 68 ± 1.27 | ATP-competitive inhibitors |  |  | 30.3 | specifically bound to LsrK; also recorded: exhibited LsrK specific binding
Cc1c(CC(=O)O)c(=O)oc2cc(OCc3ccc(C(=O)O)o3)ccc12 [Y040-9027] | 90 ± 5.18 | 94.1 ± 6.72 |  | > 100 |  |  |  |  |  |  | 
O=C(O)[C@@H]1[C@@H](C(=O)Nc2cc(C(F)(F)F)ccc2Cl)[C@H]2C=C[C@@H]1O2 [Y204-6349] | 75.1 ± 1.19 | 87.4 ± 2.6 |  | > 100 |  |  |  |  |  |  | 
NC(=O)c1cc(Cc2ccccc2)sc1NC(=O)C1C2CCC(C2)C1C(=O)O (stereo not shown) [Y205-6768] | 16.8 ± 0.76 | 101 ± 8.39 | significant QS inhibitory activities | 11.3 ± 0.7 | 8.73 ± 0.5 | 26 ± 1.32 | ATP-competitive inhibitors | < 40 | > 80 | 8.49 | specifically bound to LsrK; also recorded: exhibited LsrK specific binding
